Columns and labels:
[1] = test system: lipoxygenase / cyclooxygenase; details: prior art; cited from earlier work
leucocytes (migration) = assay: Inhibition of the migration of leucocytes, sponge soaked in active compound introduced under the dorsal skin of rats; type: in vivo; details: rat, local dose 10 mg/rat; for inhibition in vivo at 10 mg: Leucocyte, read-out: Inhibition of the migration of leucocytes (control = 0%)
From the text: The sulphenamides used according to the present invention are also active in vivo. […] Table 2 which follows summarises the activities of some illustrative sulphenamides after local administration, by introduction of a piece of sponge soaked in the active compound under the dorsal skin of rats.

platelet lipoxygenase = target: T1, platelet lipoxygenase (Homo sapiens, UniProt P18054); assay: Inhibition of the platelet lipoxygenase (synthesis of HETE), metabolism of radioactively labelled arachidonic acid by washed human platelets; type: cell-based; details: in vitro
T1 construct: metabolism of radioactively labelled arachidonic acid by washed human platelets; endogenous in cells; host or cells: washed human platelets
T1 sequence (P18054 1-663): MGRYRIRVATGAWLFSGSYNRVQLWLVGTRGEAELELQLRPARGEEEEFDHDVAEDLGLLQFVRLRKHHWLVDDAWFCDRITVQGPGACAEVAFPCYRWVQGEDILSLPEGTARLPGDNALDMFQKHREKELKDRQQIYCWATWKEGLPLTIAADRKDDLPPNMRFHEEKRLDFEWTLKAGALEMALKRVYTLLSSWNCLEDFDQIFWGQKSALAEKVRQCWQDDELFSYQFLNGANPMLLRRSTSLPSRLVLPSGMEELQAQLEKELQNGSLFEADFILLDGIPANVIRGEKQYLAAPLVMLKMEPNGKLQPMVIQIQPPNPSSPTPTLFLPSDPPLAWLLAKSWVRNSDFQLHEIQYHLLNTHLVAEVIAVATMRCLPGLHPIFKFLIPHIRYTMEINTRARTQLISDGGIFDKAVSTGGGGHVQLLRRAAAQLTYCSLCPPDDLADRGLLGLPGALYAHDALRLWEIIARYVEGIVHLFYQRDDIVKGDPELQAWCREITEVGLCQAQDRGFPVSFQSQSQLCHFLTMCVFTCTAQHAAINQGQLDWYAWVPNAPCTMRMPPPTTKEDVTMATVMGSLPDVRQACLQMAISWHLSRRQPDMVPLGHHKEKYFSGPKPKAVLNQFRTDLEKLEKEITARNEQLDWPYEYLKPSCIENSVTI
Method: In this test method, the metabolism of radioactively labelled arachidonic acid by washed human platelets is investigated. In this in vitro test, the radioactively labelled metabolites are extracted from the reaction mixture and separated by thin layer chromatography. The autoradiogram is evaluated on the thin layer scanner. Under these test conditions, the labelled metabolites are separated from the unreacted arachidonic acid and can subsequently be quantitatively evaluated. The distribution of the radioactivity in the cyclooxygenase products, formed during metabolism, thomboxane B2 (TXB2) and 12-hydroxy-5,8,10-heptadecatrienic acid (HHT) and the lipoxygenase product 12-hydroxy-5,8,11,14-eicosatetraenoic acid (HETE) as influenced by the inhibitors, gives a measure of the inhibition of the enzymes.
The inhibition of lipoxygenase by the sulphenamides which can be used according to the invention can be measured by the inhibition of the synthesis of HETE. […] Inhibition of the platelet lipoxygenase (synthesis of HETE)

| SMILES | inhibition in vivo at 10 mg (leucocytes (migration)) [%] | Minimum effective inhibitory concentration (at least 50% inhibition) (platelet lipoxygenase) | further results |
| --- | --- | --- | --- |
| CCCCCC#CCC#CCC#CCC#CCCCC(=O)O [5,8,11,14-eicosatetrainoic acid] |  |  | activity of known inhibitors of lipoxygenase, in words [1]: either simultaneously active as inhibitors of cyclooxygenase, or only active at very high concentrations |
| O=c1c2cc3c(=O)n(Sc4ccccc4)c(=O)c3cc2c(=O)n1Sc1ccccc1 [Example 45] | 40 |  |  |
| CC1=NN(Sc2ccccc2)C(=O)C1 [Example 74] | 52 | 10^-6 g/ml |  |
| O=C1c2cccc3cccc(c23)C(=O)N1Sc1ccccc1 [Example 47] | 21 |  |  |
| Nc1ncn(Sc2ccccc2)n1 [Example 2] | 70 | 10^-6 g/ml |  |
| O=C1C(=O)N(Sc2ccc(Cl)cc2)c2ccccc21 [Example 69] | 20 |  |  |
| COC(=O)c1ccc(SN2CCCC2=O)cc1 [Example 22] | 64 |  |  |
| CC(C)(C)c1ccc(SN2C(=O)c3c(Cl)c(Cl)c(Cl)c(Cl)c3C2=O)cc1 [Example 43] |  | 3e-06 g/mL |  |
| CC(Cc1ccc(O)c(O)c1)C(C)Cc1ccc(O)c(O)c1 (centres unmarked) [nordihydroguaiaretic acid] |  |  | activity of known inhibitors of lipoxygenase, in words [1]: either simultaneously active as inhibitors of cyclooxygenase, or only active at very high concentrations |
| O=c1oc2ccccc2c(=O)n1SC1CCCCC1 [Example 76] |  | 3e-06 g/mL |  |
| O=C1CCCN1Sc1cc(C(F)(F)F)ccc1Cl [Example 21] | 44 |  |  |
| O=C1CCCN1Sc1ccccc1 [Example 52] | 76 | 10^-6 g/ml |  |
| Clc1ccc(SNc2nnc(N3CCOCC3)s2)cc1 [Example 5] | 22 |  |  |
| O=C1C(=O)N(Sc2ccccc2)c2ccccc21 [Example 68] |  | 3e-06 g/mL |  |
| O=C1c2ccccc2S(=O)(=O)N1Sc1ccccc1 [Example 60] |  | 3e-06 g/mL |  |
| CC(C)(C)c1ccc(SN2C(=O)c3ccccc3S2(=O)=O)cc1 [Example 62] |  | 3e-06 g/mL |  |
| CCC(C)Sn1cnc2ccccc21 (centres unmarked) [Example 84] |  | 1e-05 g/mL |  |
| Cc1ccc(Sn2cnc(N)n2)cc1 [Example 4] | 61 |  |  |
| CC(C)(C)c1ccc(SN2C(=O)c3ccccc3C2=O)cc1 [Example 35] |  | 3e-06 g/mL |  |
| O=C1c2ccc([N+](=O)[O-])cc2C(=O)N1Sc1ccccc1 [Example 39] |  | 10^-6 g/ml |  |
| CC(C)(C)c1ccc(SN2CCCC2=O)cc1 [Example 54] |  | 10^-6 g/ml |  |
| O=C1CCCN1Sc1ccc(Cl)c(C(F)(F)F)c1 [Example 20] | 64 |  |  |
| O=C1CCN(c2ccccc2)N1Sc1ccc(Cl)cc1 [Example 72] |  | 10^-6 g/ml |  |

| SMILES | inhibition in vivo at 10 mg (leucocytes (migration)) [%] | Minimum effective inhibitory concentration (at least 50% inhibition) (platelet lipoxygenase) | further results |
| --- | --- | --- | --- |
| Nc1ncn(Sc2ccc(Cl)cc2)n1 [Example 3] |  | 10^-6 g/ml |  |
| O=C1CCCCCCCCCCN1Sc1ccccc1 [Example 58] | 78 |  |  |
| O=C1c2ccccc2C(=O)N1Sc1ccccc1 [Example 29] | 48 | 10^-6 g/ml |  |
| O=C1c2ccc([N+](=O)[O-])cc2C(=O)N1Sc1ccc(Cl)cc1 [Example 40] |  | 3e-06 g/mL | Inhibition of the migration of leucocytes (control = 0%) (leucocytes (migration)): 41% |
| O=C1c2ccccc2S(=O)(=O)N1Sc1ccc(Cl)cc1 [Example 61] |  | 10^-6 g/ml |  |
| O=C1c2ccccc2C(=O)N1SC1CCCCC1 [Example 32] | 38 | 3e-06 g/mL |  |
| O=C1CCCN1Sc1ccc(Cl)cc1 [Example 53] |  | 10^-6 g/ml |  |
| O=C1c2ccc([N+](=O)[O-])cc2C(=O)N1Sc1ccccc1 [Example 36] | 64 |  |  |
| Cc1ccc(SN2C(=O)C(C)(C)OC2(C)C)cc1 [Example 16] | 40 |  |  |
| Cc1ccc(SN2C(=O)c3ccccc3C2=O)cc1 [Example 31] | 43 | 3e-06 g/mL |  |
| O=c1n(Sc2ccccc2)c(=O)n2c(=O)n(Sc3ccccc3)c(=O)n12 [Example 18] | 41 | 3e-06 g/mL |  |
| Clc1ccc(Sn2cccn2)cc1 [Example 75] |  | 3e-06 g/mL |  |
| O=C1CCCCCN1Sc1ccccc1 [Example 55] | 78 | 10^-6 g/ml |  |
| c1ccc2c(c1)ncn2SC1CCCCC1 [Example 80, 1-cyclohexylthiobenzimidazole] |  | 1e-05 g/mL |  |
| CC(C)(C)c1ccc(SN2CCCCCC2=O)cc1 [Example 57] |  | 10^-5 g/ml |  |
| O=C1c2ccc([N+](=O)[O-])cc2C(=O)N1Sc1ccc(Cl)cc1 [Example 38] | 56 |  |  |
| O=C1c2ccccc2C(=O)N1Sc1ccc(Cl)cc1 [Example 30] |  | 3e-06 g/mL |  |
| O=C1CCN(c2ccccc2)N1 [phenidone] |  |  | activity of known inhibitors of lipoxygenase, in words [1]: either simultaneously active as inhibitors of cyclooxygenase, or only active at very high concentrations |
| c1ccc(-n2nnnc2SNc2nc[nH]n2)cc1 [Example 11] | 22 |  |  |
| O=C1c2c(Cl)c(Cl)c(Cl)c(Cl)c2C(=O)N1Sc1ccccc1 [Example 42] |  | 3e-06 g/mL |  |
| c1ccc(CNSc2nnnn2-c2ccccc2)cc1 [Example 10] | 26 |  |  |
| O=C1CCCCCN1Sc1ccc(Cl)cc1 [Example 56] | 86 | 3e-06 g/mL |  |
| CC1(C)OC(C)(C)N(Sc2ccc(Cl)cc2)C1=O [Example 15] | 47 |  |  |

From patent US4447440A, “Sulphenamides-containing lipoxygenase inhibiting agents and their use in pharmaceutical compositions” (Bayer Aktiengesellschaft, priority 1981, dated 1984)
